{
  "source": "patent US20140234359A1",
  "about": "“PLANT VIRAL VACCINES AND THERAPEUTICS” (priority 2011, published 2014)",
  "test_system": "T-24 human bladder cancer cells",
  "test": "Cell death of T-24 cells after anti-viral treatment, flow cytometry",
  "type": "cell-based",
  "conditions": "10 μM efavirenz, 48 hours, vs methanol control",
  "method": "T-24 human bladder cells were grown in a 12 well plate in a total volume of 2 mL of 10% FBS complete RPMI. Cells were left untreated or treated with 2 μL of methanol (Sigma-Aldrich) or treated with 10 μM efavirenz (Toronto Research Chemicals Cat# E425000). Cells were grown in CO2 incubator at 37° C. for 48 hours. After 48 hours, cells were harvested and counted using trypan blue on a hemocytometer.\nThe human bladder cancer T24 cell line was used to determine the effects of and anti-viral treatment on human tumor cells infected with plant virus. The T24 cells were grown in culture and then treated or not with the anti-reverse transcriptase drug, efavirenz, for twenty four or forty eight hours. Cell death assays were performed in triplicate. […] It is expected that treatment of the bladder cancer cells with a TLR activator to activate new virus replication in combination with the anti-viral drug will be useful in increasing cell death further. FIG. 2a depicts flow cytometer results on T-24 Human bladder cancer cells treated with efavirenz or methanol control for 48 hours. FIG. 2b is a bar graph depiction of the data.",
  "data": [
    {"smiles": "O=C1Nc2ccc(Cl)cc2[C@@](C#CC2CC2)(C(F)(F)F)O1", "note": "[efavirenz]", "values": [
      {"measurement": "cell death", "value": "increased death"},
      {"measurement": "cell death", "setting": "listed as Efavirenz", "value": "effective in killing a percentage of the cells"}
    ]}
  ]
}
